{"source": "patent US8748423B2", "about": "“Compositions and methods for the prevention and treatment of cancer” (Kinex Pharmaceuticals, LLC, priority 2010, dated 2014)", "key": {"Daoy": {"system": "Daoy", "experiment": "brain tumor cell line growth inhibition, Daoy", "format": "cell-based", "details": "Homo sapiens, desmoplastic cerebellar medulloblastoma", "procedure": "(§1) These GI50s were determined using standard tumor growth inhibition assays."}, "SK-N-MC": {"system": "SK-N-MC", "experiment": "brain tumor cell line growth inhibition, SK-N-MC", "format": "cell-based", "details": "Homo sapiens, neuroepithelioma", "procedure": "as §1"}, "SW1088": {"system": "SW1088", "experiment": "brain tumor cell line growth inhibition, SW1088", "format": "cell-based", "details": "Homo sapiens; SW1088, astrocytoma", "procedure": "as §1"}, "LN-18": {"system": "LN-18", "experiment": "brain tumor cell line growth inhibition, LN-18", "format": "cell-based", "details": "Homo sapiens; LN-18, glioblastoma; glioma", "procedure": "as §1"}, "SK-N-FI": {"system": "SK-N-FI", "experiment": "brain tumor cell line growth inhibition, SK-N-FI", "format": "cell-based", "details": "Homo sapiens, neuroblastoma", "procedure": "as §1"}, "GL261": {"system": "GL261", "experiment": "brain tumor cell line growth inhibition, GL261", "format": "cell-based", "details": "GL261, mouse glioblastoma", "procedure": "as §1"}, "[1]": {"system": "various brain tumor cell lines", "experiment": "proliferation in various brain tumor cell lines", "format": "cell-based, human and mouse", "details": "all brain tumor cell lines evaluated", "procedure": "Compound 76 is a synthetic, orally bioavailable, novel small molecule microtubule polymerization inhibitor with very high CNS penetration. The efficacy of Compound 76 as a novel anti-cancer agent is tested directly using mouse model of malignant glioma. Compound 76 is an orally administered tubulin polymerization inhibitor that binds to a novel site on heterodimeric tubulin, and to a novel conformation of the dimer. Compound 76 can inhibit Src signaling in tumors. Compound 76 has been evaluated in various brain tumor cell lines. […] When administered orally to mice at a dose of 10 mg/kg, the ratio of drug levels in the brain compared to plasma levels was 0.76, indicating excellent BBB penetration as in Example 1.\nCompound 76 was evaluated in various human and mouse brain tumor cells derived from glioblastoma multiforme, astrocytoma and medulloblastoma. […] When administered to mice Compound 76 penetrated the brain by 76%, thereby successfully addressing the first major challenge in brain cancer drug discovery. Drugs which are used to treat brain tumors often penetrate only 20% or less."}, "GL261 glioma [2]": {"system": "GL261 glioma", "experiment": "intracranial GL261 glioma survival study", "format": "in vivo, C57BL/6 mice", "procedure": "(§2) The studies were conducted in C57BL/6 mice. GL261 glioma cells (1×10^5 in 5 μl DMEM) were implanted intracranial coordinates: bregma, lateral 2.0 mm, anterior 1.2 mm, 3.0 mm depth dura. Treatment was initiated 3 days post implantation.\nThe median survival range and the log-rank (Mantel-Cox) statistical test results comparing the survival distributions of the samples."}, "[3]": {"experiment": "body weight in GL261 glioma survival study", "format": "in vivo, C57BL/6 mice", "procedure": "as §2\nFIGS. 2A-F show the weight gain in each of the C57BL/6 mice in the different treatment groups. The average weight at endpoint for each of the treatment groups is shown below in Table 12. FIG. 3 is a graph showing the average weights over a 40-day period for each of the treatment groups."}, "GL261 glioma [4]": {"system": "GL261 glioma", "experiment": "orthotropic GL261 glioma model, immune-competent mice", "format": "in vivo, C57BL/6 mice", "excerpt": "(§3) FIGS. 4A-C are a series of graphs showing the survival of C57BL6 mice with intracerebral GL261 glioma implants. Mice received intracerebral implants of 1×10^5 GL261 cells by stereotactic injection at 2 mm lateral, 1 mm anterior to bregma at 3 mm depth. After 4 days mice began indicated regimen of oral Compound 76. […] Compound 76 extended median survival from 21 to 29 days (range). n=10. […] Compound 76 extended median survival >100 days (range), with up to 60% of drug treated mice experiencing complete tumor regression, n=10. Long term survivors were confirmed tumor free by high field MRI in FIG. 6. […] See high field MRI in FIG. 6\n(§4) Compound 76 was also evaluated in the orthotropic GL261 glioma model in immune-competent, syngeneic C57BL/6 mice. Mice implanted intracerebrally with 1×10^5 GL261 cells treated with vehicle alone (saline) have a median survival time (MeST) of 21 days (range 18-28). Mice treated by oral Compound 76 (30 mg/kg, b.i.d.) have a MeST of 30.5 days ranging 23-32 days. In contrast, when Compound 76 is given orally at (30 mg/kg, s.i.d.) the MeST increases to over 120 days, with more than 60% of the treatment group still alive 12 months later (p<0.0001). […] Further experiments were performed using a SCID version of C57BL/6 mice (B6.CB17-Prkdc^scid/SzJ), a mouse model of B6 background, but is immune-compromised.\nas §4, with “was” for “was also”"}, "GL261 glioma [5]": {"system": "GL261 glioma", "experiment": "GL261 intracerebral tumors in SCID mice", "format": "in vivo, B6.CB17-Prkdc^scid/SzJ mice", "excerpt": "as §3, §4\nas §4, with “was” for “was also”"}, "GL261 glioma [6]": {"system": "GL261 glioma", "experiment": "re-challenge of long term survivor mice with s.c. GL261 cells", "format": "in vivo, C57BL/6 mice", "details": "1×10^6 s.c. GL261 cells; mice cured by Compound 76", "excerpt": "FIG. 5 is a graph of re-challenge of Compound 76 treated long term survivor mice from FIG. 4B with 1×10^6 s.c. GL261 glioa cells. Age and litter matched controls were implanted."}, "survivin": {"system": "survivin", "experiment": "additional molecular studies, survivin"}}, "note": "Where “and” joins values, the source holds several entries; their conditions need not be identical. Identical values can stand only once. Entries after “also recorded” stand apart in the source; their conditions may differ."}
{"smiles": "O=C(Cc1ccc(-c2ccc(N3CCOCC3)cc2)cn1)NCc1cccc(F)c1", "note": "[Compound 76]", "values": [{"measurement": "IC50", "setting": "Daoy", "result": 54.9, "unit": "nM"}, {"measurement": "IC50", "setting": "SK-N-MC", "result": 0.13, "unit": "nM"}, {"measurement": "IC50", "setting": "SW1088", "result": 22.1, "unit": "nM"}, {"measurement": "IC50", "setting": "LN-18", "result": 2.9, "unit": "nM"}, {"measurement": "IC50", "setting": "SK-N-FI", "result": 0.46, "unit": "nM"}, {"measurement": "IC50", "setting": "GL261", "result": 8.8, "unit": "nM"}, {"measurement": "GI50", "setting": "[1]", "result": "< 55", "unit": "nM"}, {"measurement": "Median survival", "setting": "GL261 glioma [2]; 15 mg/kg bid oral", "result": 30.5}, {"measurement": "survival Range", "setting": "GL261 glioma [2]; 15 mg/kg bid oral", "result": "25-34"}, {"measurement": "Median survival", "setting": "GL261 glioma [2]; 30 mg/kg bid oral", "result": 29}, {"measurement": "survival Range", "setting": "GL261 glioma [2]; 30 mg/kg bid oral", "result": "23-32"}, {"measurement": "Average weight at endpoint", "setting": "[3]; 15 mg/kg", "result": 16.9, "unit": "g"}, {"measurement": "Average weight at endpoint", "setting": "[3]; 30 mg/kg", "result": 15.0, "unit": "g"}, {"measurement": "residual tumor by MRI", "setting": "GL261 glioma [4]; 30 mg/kg s.i.d., C57BL/6 mice", "result": "no residual tumor is observed"}, {"measurement": "histopathology of tumor site / residual GL261 glioma", "setting": "GL261 glioma [4]; Compound 76 treated mice", "result": "large areas of necrosis and lymphocytic infiltration; also recorded: lymphocytic infiltration of the tumor site"}, {"measurement": "brain edema", "setting": "GL261 glioma [4]; compared with placebo or Temodar treated mice", "result": "much less brain edema"}, {"measurement": "median survival time (MeST), range", "setting": "GL261 glioma [4]; oral 30 mg/kg, b.i.d.", "result": "23 to 32", "unit": "days"}, {"measurement": "median survival time (MeST)", "setting": "GL261 glioma [4]; oral 30 mg/kg, b.i.d. (twice daily), vehicle 21 days, 30 mg/kg", "result": "29 days and 30.5 days"}, {"measurement": "treatment group still alive 12 months later", "setting": "GL261 glioma [4]; oral 30 mg/kg, s.i.d.", "result": "more than 60%"}, {"measurement": "growth rate of intracerebral GL261 glioma", "setting": "GL261 glioma [4]; relative to control groups", "result": "very significantly slows the rate of tumor growth; also recorded: slows the growth rate"}, {"measurement": "treated mice with complete tumor regression", "setting": "GL261 glioma [4]; single dose per day (s.i.d.)", "result": "up to 60%"}, {"measurement": "median survival time (MeST), range", "setting": "GL261 glioma [5]", "result": "29 to 75", "unit": "days"}, {"measurement": "tumor reoccurrence by MRI", "setting": "GL261 glioma [5]; after drug was discontinued", "result": "tumor reoccurrence; also recorded: all proceeded to develop lethal GL261 gliomas"}, {"measurement": "long term survivors", "setting": "GL261 glioma [5]; oral 30 mg/kg once daily", "result": "no long term survivors"}, {"measurement": "median survival time (MeST)", "setting": "GL261 glioma [5]; oral 30 mg/kg once daily, 30 mg/kg", "result": "29 days and 40 days"}, {"measurement": "second GL261 tumor challenge in long term survivors", "setting": "GL261 glioma [6]", "result": "rejected the second GL261 tumor challenge; also recorded: rejected a second GL261 tumor implant challenge"}, {"measurement": "effect on intracellular survivin", "setting": "survivin", "result": "increased expression and altered the localization of intracellular survivin"}]}
